Data: patent US20230381774A1, “MICROFLUDIC LAB-ON-CHIP DEVICE, MATRIX, SMALL MOLECULES AND THREE-DIMENSIONAL SPHEROIDS FOR CELL REPROGRAMMING” (The Regents of the University of California, priority 2022, published 2023)

Experiments:
Format in all cases: cell-based, mouse
neuronal genes = assay: qRT-PCR of neuronal gene expression; settings: for neuronal gene expression at day 5: blebbistatin or 5 μM PF573228, vs non-treated transduced cells
Description: RNA was isolated from samples using Trizol® (Ambion) according to the manufacturer's instructions. For cDNA synthesis, 500 ng of RNA was reverse transcribed using Maxima First Strand cDNA Synthesis Kit (ThermoFisher Scientific). Template DNA was amplified using Maxima SYBR Green/Fluorescein qPCR Master Mix (ThermoFisher Scientific) on a CFX qPCR machine (Bio-Rad). qRT-PCR data were analyzed using CFX Manager 3.1 (Bio-Rad) and gene expression levels were normalized to 18S.

[1] = system: histone acetyltransferase (HAT); assay: HAT activity assay on nuclear extracts of treated fibroblasts; settings: 10 μM blebbistatin or 5 μM PF573228, 2 hours, vs DMSO
Description: (§1) Nuclear protein extractions were isolated from 5×10^5 fibroblasts treated with vehicle control (DMSO), 10 μM blebbistatin or 5 μM PF573228 for 2 hours using a nuclear extraction kit (EpiGentek, OP-0002), in accordance with the manufacturer's instructions. HAT, HDAC, H3K4 HMT, H3K4 HDM and DNMT activity were measured using the HAT activity/inhibition assay (EpiGentek, P-4003-048), HDAC activity/inhibition assay (EpiGentek, P-4034-096), Histone methyltransferase (H3K4 specific) activity/inhibition assay (EpiGentek, P-3002-1), Histone Demethylase (H3K4 specific) activity/inhibition assay (EpiGentek, P-3074-48), and DNMT activity/inhibition assay (EpiGentek, P-3009-048), respectively. Per the manufacturer's instructions, 20 μg of nuclear extract was added into the assay wells and incubated at 37° C. for 90 minutes. After adding the color developer solution, the absorbance was measured using a plate reader (Infinite […], 30050303) at 450 nm for all the assays with the exception of the Histone Demethylase (H3K4 specific) activity/inhibition assay where we measured the fluorescence using a fluorescence microplate reader at 530 EX/590 EM nm.

[2] = system: promoter or enhancer regions of neuronal and mesenchymal genes; assay: ATAC-seq chromatin accessibility; settings: 10 μM blebbistatin or 5 μM PF573228, 2 hours
Description: A total of 1,000,000 fibroblasts treated with vehicle control (DMSO), 10 μM blebbistatin or 5 μM PF573228 were collected after 2 hours and stored at −80° C. prior to sample processing. ATAC-seq was performed as described previously^47. In brief, frozen cells were thawed and washed once with PBS and then resuspended in 500 μL of cold PBS. The cell number was assessed by Cellometer Auto 2000 (Nexcelom Bioscience, Massachusetts, USA). 100,000 cells were then added to ATAC lysis buffer and centrifuged at 500 g in a pre-chilled centrifuge for 5 minutes. Supernatant was removed and the nuclei were resuspended in 50 μL of tagmentation reaction mix by pipetting up and down. The reactions were incubated at 37° C. for 30 minutes in a thermomixer with shaking at 1,000 r.p.m., and then cleaned up using the MiniElute reaction clean up kit (Qiagen). Tagmented DNA was amplified with barcoded primers. Library quality and quantity were assessed with Qubit 2.0 DNA HS Assay (ThermoFisher), Tapestation High Sensitivity D1000 Assay (Agilent Technologies), and QuantStudio® 5 System (Applied Biosystems). Equimolar pooling of libraries was performed based on QC values and sequenced on an Illumina® NovaSeq (Illumina, California, USA) with a read length configuration of 150 PE for [100]M PE reads (50M in each direction) per sample.
FASTQ files were trimmed with Trim Galore and cutadapt^48. Pair-ended reads were then aligned to the mouse reference genome (mm10) with Bowtie2^49. Mitochondrial reads and PCR duplicates were removed using SAMtools^50 and Picard (http://broadinstitute.github.io/picard/), respectively. Peaks were called over input using MACS3^51, and only peaks outside the ENCODE blacklist region were kept. All peaks from all samples were merged and featureCount^52 was used to count the mapped reads for each sample.

[3] = system: DNA methyltransferase (DNMT); assay: DNMT activity assay on nuclear extracts of treated fibroblasts; settings: 10 μM blebbistatin or 5 μM PF573228, 2 hours, vs DMSO
Description: as §1

histone marks = assay: Immunofluorescence of histone marks in non-transduced fibroblasts; settings: global; 10 μM blebbistatin or 5 μM PF573228, 2 hours, vs control
Description: For immunostaining, cells were fixed with 4% paraformaldehyde (Electron Microscopy Sciences), permeabilized with 0.5% Triton-X-100 (Sigma), and blocked with 5% donkey serum (Jackson Immunoresearch) in phosphate buffered saline (PBS). For actin-cytoskeleton staining, samples were incubated with fluorescein isothiocyanate-conjugated phalloidin (Invitrogen) for 1 hour. Primary antibodies were incubated for 1 hour at room temperature or overnight at 4° C., followed by 1-hour incubation with Alexa 488 and/or Alexa 546-labeled secondary antibodies (Molecular Probes). Nuclei were stained with 4,6-diamino-2-phenylindole (DAPI) (Invitrogen).
Quantification of histone intensity per nuclei was performed using an ImageJ macro. DAPI-stained nuclei were segmented using gaussian blur, thresholding, watershed, and analyze particle functions to identify individual nuclei. This mask was applied to the corresponding stained fluorescence channel to quantify the average fluorescence intensity within each nucleus.

SMILES	neuronal gene expression at day 5 (neuronal genes; BAM-transduced fibroblasts)	HAT activity [1]	chromatin accessibility of mesenchymal genes [2]	chromatin accessibility of neuronal genes (Ascl1, Brn2, Myt1l, Tubb3) [2]	DNMT activity [3]	euchromatin marks (AcH3, H3K4me3, H3K4me1) (histone marks)	heterochromatin marks (H3K27me3, H3K9me3) (histone marks)	endogenous Brn2 and Myt1l expression (neuronal genes; Ascl1-transduced fibroblasts)	expression of several neuronal genes including NeuroD1 (neuronal genes; Ascl1-transduced fibroblasts)	Ascl1 expression at day 3 (neuronal genes; BAM-transduced fibroblasts)	Brn2 and Myt1l expression at day 3 (neuronal genes; BAM-transduced fibroblasts)
CS(=O)(=O)c1cccc(CNc2nc(Nc3ccc4c(c3)CCC(=O)N4)ncc2C(F)(F)F)c1 [PF573228]	greater	differences	slightly decrease the accessibility of mesenchymal genes	could increase the accessibility at the promoter or enhancer regions of neuronal genes	a reduction in 5-mC marks and DNMT activity	global increases in AcH3, H3K3me3 and H3K4me1 marks	a concurrent decrease in H3K9me3 and H3K27me3				
Cc1ccc2c(c1)C(=O)C1(O)CCN(c3ccccc3)C1=N2 (stereo not drawn) [blebbistatin]	significantly increased	increased	slightly decreased the accessibility at the promoters or enhancer regions of some mesenchymal genes	could increase the accessibility at the promoter or enhancer regions of neuronal genes	a decrease in DNA methyltransferase (DNMT) activity	an increase in AcH3, H3K4me3, and H3K4me1 marks	decreased	upregulated the expression of endogenous Brn2 and Myt1l	higher	upregulated	did not show such a drastic increase in the expression level
